Measurements reported in patent publication US6545007B2, “Methods for inhibiting the transmission of HIV using topically applied substituted 6-benzyl-4-oxopyrimidines” (Idenix (Cayman) Limited, priority 2000, dated 2003).
Like-named read-outs stand apart in the source and are kept apart here.

What was measured:
HIV-1 (IIIB strain) = format: cell-based; conditions: for EC50: anti-HIV-1 activity; for SI: selectivity index (CC50/EC50)
Description: Compounds. Compounds were solubilized in DMSO at 200 mM and then diluted into culture medium.
(§1) Cells and viruses. MT-4, C8166,H9/IIIB and CEM cells were grown at 37° C. in a 5% CO2 atmosphere in RPMI 1640 medium, supplemented with 10% fetal calf serum (FCS), 100 IU/mL penicillin and 100 μg/mL streptomycin. Cell cultures were checked periodically for the absence of mycoplasma contamination with a MycoTect Kit (Gibco). Human immunodeficiency virus type-I (HIV-1, IIIB strain) was obtained from supernatants of persistently infected H9/IIIB cells.
HIV Titration. Titration of HIV was performed in C8166 cells by the standard limiting dilution method (dilution 1:2, four replica wells per dilution) in 96-well plates. The infectious virus titre was determined by light microscope scoring of cytopathicity after 4 days of incubation and the virus titres were expressed as CCID50/mL.
(§2) Anti-HIV Assays. Activity of the compounds against HIV-1 and HIV-2 multiplication in acutely infected cells was based on the inhibition of virus-induced cytopathicity in MT-4 and C8166 cells, respectively. Briefly, 50 μL of culture medium containing 1×10^4 cells were added to each well of flat-bottom microtiter trays containing 50 μl of culture medium with or without various concentrations of the test compounds. Then 20 μL of an HIV suspension containing 100 CCID50 were added. After a 4-day incubation at 37° C., the number of viable cells was determined by the 3-(4,5-dimethylthiazol-[…])-2,5-diphenyltetrazolium bromide (MTT) method. Cytotoxicity of the compounds was evaluated in parallel with their antiviral activity. It was based on the viability of mock-infected cells, as monitored by the MTT method.

mock-infected MT-4 cells = assay: Cytotoxicity: viability of mock-infected cells by the MTT method; format: cell-based, human
Description: as §1, §2

[1] = acutely infected MT-4 cells, MTT

| Structure (SMILES) | EC50 (HIV-1 (IIIB strain); HIV-1-infected MT-4 cells) | SI (HIV-1 (IIIB strain)) | CC50 (mock-infected MT-4 cells) | EC50 (HIV-1 (IIIB strain); [1]) | CC50 (mock-infected MT-4 cells; MTT) |
| --- | --- | --- | --- | --- | --- |
| O=c1cc(Cc2c(F)cccc2F)nc(NC2CCCC2)[nH]1 [MC 1022] | 90 nM | >2,222 | > 200000 nM |  |  |
| CCc1c(Cc2c(F)cccc2F)nc(SC(C)C)[nH]c1=O [MC 1037] | 200 nM | 326 | 65000 nM |  |  |
| CCc1c(Cc2c(F)cccc2F)nc(SC(C)CC)[nH]c1=O (stereo not shown) [MC 1038] | 100 nM | >2,000 | > 200000 nM |  |  |
| CC(C)Sc1nc(Cc2c(F)cccc2F)c(C(C)C)c(=O)[nH]1 [MC 1039] | 400 nM | >500 | > 200000 nM |  |  |
| CCC(C)Sc1nc(Cc2cc(F)cc(F)c2)cc(=O)[nH]1 (stereo not shown) [MC 1041] | 1400 nM | >143 | > 200000 nM |  |  |
| COCCNc1nc(Cc2c(F)cccc2F)cc(=O)[nH]1 [MC 1043] | 800 nM | >250 | > 200000 nM |  |  |
| CC(C)CSc1nc(C(C)c2c(F)cccc2F)cc(=O)[nH]1 (stereo not shown) [MC 1044] | 50 nM | >4,000 | > 200000 nM |  |  |
| CCCCSc1nc(C(C)c2c(F)cccc2F)cc(=O)[nH]1 (stereo not shown) [MC 1045] | 70 nM | 2,857 | > 200000 nM |  |  |
| CC(c1cc(=O)[nH]c(NC2CCCC2)n1)c1c(F)cccc1F (stereo not shown) [MC 1048] | 30 nM | 2,500 | 75000 nM |  |  |
| O=c1cc(Cc2c(F)cccc2F)nc(NC2CCCCC2)[nH]1 [MC 1049] | 140 nM | 471 | 66000 nM |  |  |
| Cc1c(Cc2c(F)cccc2F)nc(NC2CCCC2)[nH]c1=O [MC 1050] | 20 nM | >10,000 | > 200000 nM |  |  |
| CSc1nc(C(C)c2c(F)cccc2F)c(C)c(=O)[nH]1 (stereo not shown) [MC 1060] | 40 nM | >5,000 | > 200000 nM |  |  |
| CCCCNc1nc(Cc2c(F)cccc2F)cc(=O)[nH]1 [MC 1077] | 100 nM | 1,000 | 100000 nM |  |  |
| CCCNc1nc(Cc2c(F)cccc2F)cc(=O)[nH]1 [MC 1078] | 110 nM | 1,818 | 200000 nM |  |  |
| O=c1cc(Cc2c(F)cccc2F)nc(OC2CCCC2)[nH]1 [MC 1103] | 20000 nM | >10 | > 200000 nM |  |  |
| Cc1c(Cc2c(F)cccc2F)nc(NCc2ccccc2)[nH]c1=O [MC 1105] | 500 nM | 100 | 50000 nM |  |  |
| CCC(C)Sc1nc(C(C)c2c(F)cccc2F)c(C)c(=O)[nH]1 (stereo not shown) [MC 1109] | 30 nM | 6,666 | 200000 nM |  |  |
| CCC(C)Sc1nc(C(C)c2c(F)cccc2F)cc(=O)[nH]1 (stereo not shown) [MC 1110] | 30 nM | >6,666 | > 200000 nM |  |  |
| Cc1c(Cc2c(F)cccc2F)nc(NC(C)C)[nH]c1=O [MC 1118] | 30 nM | 6,333 | 190000 nM |  |  |
| CCNc1nc(Cc2c(F)cccc2F)cc(=O)[nH]1 [MC 1119] | 800 nM | >250 | > 200000 nM |  |  |
| CCC(C)Nc1nc(Cc2c(F)cccc2F)c(C)c(=O)[nH]1 (stereo not shown) [MC 1130] | 70 nM | 2,857 | 200000 nM |  |  |
| Cc1c(C(C)c2c(F)cccc2F)nc(SC(C)C)[nH]c1=O (stereo not shown) [MC 1137] |  |  |  | 7 nM | 200000 nM |
| CSCSc1nc(Cc2ccccc2)cc(=O)[nH]1 [MC 1140] |  |  |  | 20000 nM | > 200000 nM |
| CSCSc1nc(Cc2c(F)cccc2F)c(C(C)C)c(=O)[nH]1 [MC 1145, 6-(2,6-Difluorophenyhnethyl)-3,4-dihydro-5-(1-methylethyl)-2-(methylthiomethyl) thiopyrimidin-4-(3H)-one] |  |  |  | 100 nM | 200000 nM |
| Cc1c(C(C)c2c(F)cccc2F)nc(SCC(C)C)[nH]c1=O (stereo not shown) [MC 1153] |  |  |  | 10 nM | > 200000 nM |

| Structure (SMILES) | EC50 (HIV-1 (IIIB strain); HIV-1-infected MT-4 cells) | SI (HIV-1 (IIIB strain)) | CC50 (mock-infected MT-4 cells) | EC50 (HIV-1 (IIIB strain); [1]) | CC50 (mock-infected MT-4 cells; MTT) |
| --- | --- | --- | --- | --- | --- |
| CCc1c(Cc2c(F)cccc2F)nc(SCSC)[nH]c1=O [MC 1157] |  |  |  | 110 nM | 50000 nM |
| CSCSc1nc(Cc2c(F)cccc2F)cc(=O)[nH]1 [MC 1161, 6-(2,6-Difluorophenyhnethyl)-3,4-dihydro-2-(methylthiomethyl)thiopyrimidin-4-(3H)-one] |  |  |  | 800 nM | > 200000 nM |
| CSCSc1nc(Cc2c(F)cccc2F)c(C)c(=O)[nH]1 [MC 1162, 6-(2,6-Difluorophenylmethyl)-3,4-dihydro-5-methyl-2-(methylthiomethyl)thiopyrimidin-4(3H)-one] |  |  |  | 120 nM | 30000 nM |
| CNc1nc(Cc2c(F)cccc2F)cc(=O)[nH]1 [MC 1167] | 1500 nM | >133 | > 200000 nM |  |  |
| CNc1nc(Cc2c(F)cccc2F)c(C)c(=O)[nH]1 [MC 1168] | 400 nM | 335 | 135000 nM |  |  |
| CNc1nc(C(C)c2c(F)cccc2F)c(C)c(=O)[nH]1 (stereo not shown) [MC 1170] |  |  |  | 30 nM | ≥ 200000 nM |
| Cc1c(C(C)c2c(F)cccc2F)nc(SC2CCCCC2)[nH]c1=O (stereo not shown) [MC 1174] |  |  |  | 18 nM | > 200000 nM |
| CCCCSc1nc(C(C)c2c(F)cccc2F)c(C)c(=O)[nH]1 (stereo not shown) [MC 1175] |  |  |  | 8 nM | 112000 nM |
| CNc1nc(C(C)c2c(F)cccc2F)cc(=O)[nH]1 (stereo not shown) [MC 1178] |  |  |  | 110 nM | 106000 nM |
| CC(c1cc(=O)[nH]c(NC2CCCCC2)n1)c1c(F)cccc1F (stereo not shown) [MC 1180] |  |  |  | 20 nM | 56000 nM |
| Cc1c(C(C)c2c(F)cccc2F)nc(NC2CCCCC2)[nH]c1=O (stereo not shown) [MC 1181] |  |  |  | 30 nM | 58000 nM |
| CN(C)c1nc(Cc2c(F)cccc2F)cc(=O)[nH]1 [MC 1182, 6-(2,6-Difluorophenylmethyl)-3,4-dihydro-2-N,N-dimethylaminopyrimidin-4-(3H)-one] |  |  |  | 50 nM | > 200000 nM |
| CN1CCN(c2nc(Cc3c(F)cccc3F)cc(=O)[nH]2)CC1 [MC 1183] |  |  |  | 7100 nM | > 200000 nM |
| CCCCNc1nc(Cc2c(F)cccc2F)c(C)c(=O)[nH]1 [MC 1185] |  |  |  | 20 nM | > 200000 nM |
| CCCNc1nc(Cc2c(F)cccc2F)c(C)c(=O)[nH]1 [MC 1186] | 20 nM | >10,000 | > 200000 nM |  |  |
| CCCCNc1nc(C(C)c2c(F)cccc2F)c(C)c(=O)[nH]1 (stereo not shown) [MC 1187] |  |  |  | 10 nM | 83000 nM |
| O=c1cc(Cc2c(F)cccc2F)nc(N2CCOCC2)[nH]1 [MC 1188] |  |  |  | 600 nM | > 200000 nM |
| CCCCNc1nc(C(C)c2c(F)cccc2F)cc(=O)[nH]1 (stereo not shown) [MC 1189] |  |  |  | 30 nM | 52000 nM |
| CCCNc1nc(C(C)c2c(F)cccc2F)cc(=O)[nH]1 (stereo not shown) [MC 1190] |  |  |  | 20 nM | 103000 nM |
| CC(C)Nc1nc(C(C)c2c(F)cccc2F)cc(=O)[nH]1 (stereo not shown) [MC 1191] |  |  |  | 30 nM | 115000 nM |
| CCC(C)Nc1nc(C(C)c2c(F)cccc2F)cc(=O)[nH]1 (stereo not shown) [MC 1192] |  |  |  | 40 nM | 86000 nM |
| O=c1cc(Cc2c(F)cccc2F)nc(N2CCSCC2)[nH]1 [MC 1193] |  |  |  | 50 nM | > 200000 nM |
| O=c1cc(Cc2c(F)cccc2F)nc(N2CCCCC2)[nH]1 [MC 1194] |  |  |  | 20 nM | > 200000 nM |
| Cc1c(Cc2c(F)cccc2F)nc(N(C)C)[nH]c1=O [MC 1195] |  |  |  | 20 nM | > 200000 nM |
| O=c1cc(Cc2c(F)cccc2F)nc(N2CCCC2)[nH]1 [MC 1196] |  |  |  | 2100 nM | > 200000 nM |
